According to US20110183969A1, “ANTIFUNGAL COMBINATION THERAPY” (priority 2008, published 2011):
Converted amounts (≈) assume the structure as drawn.

Experiments:
Test in all cases: MIC (YAG medium)
Type in all cases: cell-based
[1] = test system: Aspergillus fumigatus AF210; conditions: YAG medium, MIC banded into grades, AF210; for MIC: Aspergillus fumigatus, read-out: MIC A. fumigatus 210 (grade)
Protocol: (§1) Between 1 and 5 mgs of compound were accurately weighed out into a sterile Eppendorf tube. The compound was dissolved in DMSO to give a solution containing 5 mg/mL. Tubes were stored at −20° C. until required.
(§2) On the day of testing thawed solutions were vortex mixed to ensure homogeneity. 30 μL of solution was removed and added to 570 μL of sterile water in a separate sterile Eppendorf The thoroughly mixed solution was used to prepare a series of doubling dilutions in water, in a deep well plate. […] replicate plates were prepared using a Minitrak by aspirating 20 μL from each well into eleven clear polystyrene 96 well plates.
(§3) Spores of Aspergillus spp. (Aspergillus fumigatus [two strains], Aspergillus terreus [two strains], Aspergillus niger and Aspergillus flavus) were harvested from cultures grown on Sabarauds agar for 5 days, and resuspended in PBS/Tween 80 to approx 1×10^7 cfu/mL. Other filamentous fungi (Absidia corymbifera, Fusarium solani, Rhizomucor, Scedosporium spp., Trichophyton spp.), were grown on Sabarauds agar for 2-10 days and spores/hyphae resuspended in PBS/Tween to give approx 1×10^7 cfu/mL. Candida species (Candida albicans, Candida glabrata, Candida krusei, Candida parapsilosis and Candida tropicalis) were grown on Sabarauds agar, cells were harvested from the agar using a sterile loop and resuspended in PBS/Tween 80 to approx 1×10^6 cfu/mL. Each organism suspension was diluted in RPMI medium, containing 2% glucose and 0.135 M MOPS buffer (pH 7.0) to 0.5−2×10^4 cfu/mL for Aspergillus spp. and other filamentous fungi and 0.5-2×10^3 cfu/mL for yeast. 80 μL of an organism suspension was added to each well of the plate containing drug dilutions.
(§4) This produced MIC plates with a drug range 50-0.05 mg/L and organism inocula of 1-2×10^4 cfu/mL for Aspergillus spp. and other filamentous fungi and 1-2×10^3 cfu/mL for yeasts. All plates were incubated for 24-48 hrs at 35° C. Growth was assessed by monitoring the optical density at 485 nm for each well. The MIC of a compound is the lowest drug concentration that inhibits growth of an organism by >80% compared with a drug free control. MICs are recorded as mg/L. Other growth media can be used for susceptibility testing, and the activity of the described compounds can also be assessed in a medium comprising 1% glucose, 1% ammonium chloride and 0.5% yeast extract (YAG medium). To perform MIC tests in this medium, dilutions of compounds are prepared in microtitre plates as described above. Fungal strains to be tested are grown and harvested in an identical manner to that described above, each organism suspension is then diluted in YAG medium to 0.5-2×10^4 cfu/mL for Aspergillus spp. and other filamentous fungi and 0.5-2×10^3 cfu/mL for yeast. 80 μL of an organism suspension was added to each well of the plate containing drug dilutions. This produced MIC plates with a drug range 50-0.05 mg/L and organism inocula of 1-2×10^4 cfu/mL for Aspergillus spp. and other filamentous fungi and 1-2×10^3 cfu/mL for yeasts. All plates were incubated for 24 hrs at 35° C. Growth was assessed by monitoring the optical density at 485 nm for each well. The MIC of a compound is the lowest drug concentration that inhibits growth of an organism by >70% compared with a drug free control. MICs are recorded as mg/L. In cases where the MIC of an organism is […] mg/L the MIC is repeated using a concentration range of 0.5-0.0005 mg/L. MIC tests in YAG medium have more clear-cut endpoints and have slightly lower MICs than those performed in RPMI medium.
(§5) The following organisms were tested: Absidia corymbifera, Aspergillus flavus, Aspergillus fumigatus AF293 and AF210, Aspergillus niger, Aspergillus terreus AT4 and AT49, Candida albicans, Candida glabrata, Candida krusei, Candida parapsilosis, Candida tropicalis, Fusarium solani, Rhizomucor sp., Scedosporium apiospermum, Scedosporium prolificans, Trichophyton mentagrophytes, and Trichophyton rubrum.

[2] = test system: Aspergillus fumigatus AF293; conditions: YAG medium, MIC banded into grades, AF293; for MIC: Aspergillus fumigatus, read-out: MIC A. fumigatus (grade)
Protocol: as §1, §2, §3, §4, §5

Aspergillus flavus = conditions: YAG medium, MIC banded into grades; for MIC: Aspergillus flavus, read-out: MIC A. flavus (grade)
Protocol: as §1, §2, §3, §4, §5

Aspergillus terreus AT49 = conditions: YAG medium, MIC banded into grades, AT49; for MIC: Aspergillus terreus, read-out: MIC A. terreus 49 (grade)
Protocol: as §1, §2, §3, §4, §5

Aspergillus niger = conditions: YAG medium, MIC banded into grades; for MIC: Aspergillus niger, read-out: MIC A. niger (grade)
Protocol: as §1, §2, §3, §4, §5

Aspergillus terreus AT4 = conditions: YAG medium, MIC banded into grades, AT4; for MIC: Aspergillus terreus, read-out: MIC A. terreus (grade)
Protocol: as §1, §2, §3, §4, §5

SMILES | MIC [1] [µg/mL] | MIC [2] [µg/mL] | MIC (Aspergillus flavus) [µg/mL] | MIC (Aspergillus terreus AT49) [µg/mL] | MIC (Aspergillus niger) [µg/mL] | MIC (Aspergillus terreus AT4) [µg/mL] | MIC A. fumigatus 210 (grade) [1] | MIC A. fumigatus (grade) [2] | MIC A. flavus (grade) (Aspergillus flavus) | MIC A. terreus 49 (grade) (Aspergillus terreus AT49) | MIC A. niger (grade) (Aspergillus niger) | MIC A. terreus (grade) (Aspergillus terreus AT4)
CC(C)c1ncc(C(C)(C)c2cccc(NC(=O)C(=O)c3c(-c4ccccc4)cc4ccccn34)c2)n1C [Example 15, N-{3-[1-(2-Isopropyl-3-methyl-3H-imidazol-4-yl)-1-methyl-ethyl]-phenyl}-2-oxo-2-(2-phenyl-indolizin-3-yl)-acetamide] | > 10 | > 10 | > 10 | > 10 | > 10 | > 10 | – | – | – | – | – | –
Cc1cc(C)nc(N2CCN(c3ccc(NC(=O)C(=O)c4c(-c5ccccc5)cc5ccc(F)cn45)cc3)CC2)c1 [Example 32, N-{4-[4-(4,6-Dimethyl-pyridin-2-yl)-piperazin-1-yl]-phenyl}-2-(6-fluoro-2-phenyl-indolizin-3-yl)-2-oxo-acetamide] | < 1 | < 1 | < 1 | < 1 | < 1 | < 1 | – | – | – | – | – | –
O=C(Nc1ccc(N2CCN(Cc3ccco3)CC2)cn1)C(=O)c1c(-c2ccccc2)cc2ccccn12 [Example 34, N-[5-(2-Furan-2-yl-methyl-piperazin-yl)-peridin-2-yl]-2-oxo-2-(2-phenylindolizin-3-yl)-acetamide] | – | – | – | – | – | – | 3 (A grade of 3 represents an MIC of less than 1 mg/L) | 3 (A grade of 3 represents an MIC of less than 1 mg/L) | 3 (A grade of 3 represents an MIC of less than 1 mg/L) | 3 (A grade of 3 represents an MIC of less than 1 mg/L) | 3 (A grade of 3 represents an MIC of less than 1 mg/L) | 3 (A grade of 3 represents an MIC of less than 1 mg/L)
O=C(Nc1ccc(N2CCN(c3ccccn3)CC2)cc1)C(=O)c1c(-c2ccccc2)cc2ccccn12 [Example 41, 2-Oxo-2-(2-phenyl-indolizin-3yl)-N-[4-(4-pyridin-2-yl-piperizin-1-yl)-phenyl]-acetamide] | – | – | – | – | – | – | 3 (A grade of 3 represents an MIC of less than 1 mg/L) | 3 (A grade of 3 represents an MIC of less than 1 mg/L) | 3 (A grade of 3 represents an MIC of less than 1 mg/L) | 3 (A grade of 3 represents an MIC of less than 1 mg/L) | 3 (A grade of 3 represents an MIC of less than 1 mg/L) | 3 (A grade of 3 represents an MIC of less than 1 mg/L)
C=C1CCN(c2ccc(NC(=O)C(=O)c3c(-c4cccnc4C)cc4ccccn34)cc2)CC1 [Example 46, N-[4-(4-Methylene-piperidin-1-yl)-phenyl]-2-[2-(2-methyl-pyridin-3-yl)-indolizin-3-yl]-2-oxo-acetamide] | < 1 | < 1 | < 1 | < 1 | < 1 | < 1 | – | – | – | – | – | –
Cc1cc(C)nc(N2CCN(c3ccc(NC(=O)C(=O)c4c(-c5ccccc5)cc5ccccn45)cc3C(=O)O)CC2)c1 [Example 84, 2-[4-(4,6-Dimethyl-pyridin-2-yl)-piperazin-1-yl]-5-[2-oxo-2-(2-phenyl-indolizin-3-yl)-acetylamino]-benzoic acid] | 1 to 10 (≈ 1.74 to 17.4 µM) | < 1 | < 1 | 1 to 10 (≈ 1.74 to 17.4 µM) | 1 to 10 (≈ 1.74 to 17.4 µM) | 1 to 10 (≈ 1.74 to 17.4 µM) | – | – | – | – | – | –
Cc1cccc(N2CCN(c3ccc(NC(=O)C(=O)c4c(-c5ccccc5)cc5ccccn45)cc3)CC2)n1 [Example 43, N-{4-[4-(6-Methyl-pyridin-2-yl)-piperazin-1-yl]-phenyl}-2-oxo-2-(2-phenyl-indolizin-3-yl)-acetamide] | < 1 | < 1 | < 1 | < 1 | < 1 | < 1 | – | – | – | – | – | –
Cc1cc(C)nc(N2CCN(c3ccc(NC(=O)C(=O)c4c(C5CCN(C)CC5)cc5ccccn45)cc3)CC2)c1 [Example 63, N-{4-[4-(4,6-Dimethyl-pyridin-2-yl)-piperazin-1-yl]-phenyl}-2-[2-(1-methyl-piperidin-4-yl)-indolizin-3-yl]-2-oxo-acetamide] | > 10 | > 10 | > 10 | > 10 | > 10 | > 10 | – | – | – | – | – | –
Cc1cc(C)nc(N2CCN(c3ccc(NC(=O)C(=O)c4c(-c5ccccc5)cc5ccccn45)c(C)c3)CC2)c1 [Example 80, N-{4-[4-(4,6-Dimethyl-pyridin-2-yl)-piperazin-1-yl]-2-methyl-phenyl}-2-oxo-2-(2-phenyl-indolizin-3-yl)-acetamide] | < 1 | < 1 | < 1 | < 1 | < 1 | < 1 | – | – | – | – | – | –

Continued, in another order:

MIC [1] [µg/mL] | MIC [2] [µg/mL] | MIC (Aspergillus flavus) [µg/mL] | MIC (Aspergillus terreus AT49) [µg/mL] | MIC (Aspergillus niger) [µg/mL] | MIC (Aspergillus terreus AT4) [µg/mL] | SMILES | MIC A. fumigatus 210 (grade) [1] | MIC A. fumigatus (grade) [2] | MIC A. flavus (grade) (Aspergillus flavus) | MIC A. terreus 49 (grade) (Aspergillus terreus AT49) | MIC A. niger (grade) (Aspergillus niger) | MIC A. terreus (grade) (Aspergillus terreus AT4)
< 1 | < 1 | < 1 | < 1 | < 1 | < 1 | COCCN(C)c1ccc(N2CCN(c3ccc(NC(=O)C(=O)c4c(-c5ccccc5)cc5ccccn45)cc3)CC2)cn1 [Example 68, N-[4-(4-{6-[(2-Methoxy-ethyl)-methyl-amino]-pyridin-3-yl}-piperazin-1-yl)-phenyl]-2-oxo-2-(2-phenyl-indolizin-3-yl)-acetamide] | – | – | – | – | – | –
< 1 | < 1 | < 1 | < 1 | < 1 | < 1 | O=C(Nc1ccc(N2CCN(c3cccc(CCO)n3)CC2)cc1)C(=O)c1c(-c2ccccc2)cc2ccccn12 [Example 88, N-(4-{4-[6-(2-hydroxy-ethyl)-pyridin-2-yl]-piperazin-1-yl}-phenyl)-2-oxo-2-(2-phenyl-indolizin-3-yl)-acetamide] | – | – | – | – | – | –
< 1 | < 1 | < 1 | < 1 | < 1 | < 1 | Cc1cc(C)nc(N2CCN(c3ccc(NC(=O)C(=O)c4c(C5CCOCC5)cc5ccccn45)cc3)CC2)c1 [Example 66, N-{4-[4-(4,6-Dimethyl-pyridin-2-yl)-piperazin-1-yl]-phenyl}-2-oxo-2-[2-(tetrahydro-pyran-4-yl)-indolizin-3-yl]-acetamide] | – | – | – | – | – | –
> 10 | > 10 | > 10 | 1 to 10 (≈ 1.98 to 19.8 µM) | 1 to 10 (≈ 1.98 to 19.8 µM) | 1 to 10 (≈ 1.98 to 19.8 µM) | CC(C)c1ncc(C(C)(C)c2ccc(NC(=O)C(=O)c3c(-c4ccccc4)cc4ccccn34)cc2)n1C [Example 17, N-{4-[1-(2-Isopropyl-3-methyl-3H-imidazol-4-yl)-1-methyl-ethyl]-phenyl}-2-oxo-2-(2-phenyl-indolizin-3-yl)-acetamide] | – | – | – | – | – | –
< 1 | < 1 | < 1 | < 1 | < 1 | < 1 | Cc1ccc(N2CCN(c3ccc(NC(=O)C(=O)c4c(-c5ccccc5)cc5ccccn45)cc3)CC2)nc1 [Example 74, N-{4-[4-(5-Methyl-pyridin-2-yl)-piperazin-1-yl]-phenyl}-2-oxo-2-(2-phenyl-indolizin-3-yl)-acetamide] | – | – | – | – | – | –
